Data on 23 molecules can be found in patent publication US20230104936A1, “TRPML MODULATORS” (Casma Therapeutics, Inc., priority 2019, published 2023).

This assay deals with TFEB. Description: TFEB nuclear translocation assay, HeLa wt cells. The format is cell-based. The following applies: 2 hrs compound treatment, Table 1 does not say HeLa wt or TRPML1 KO. The method in brief:
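Read-out is the ratio of TFEB immunofluorescence in the nucleus to that in a ring just outside it, measured by automated imaging. HeLa wt cells received compounds for 2 hrs at 37° C before fixation and staining; AC50 values come from this ratio.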

One may read the AC50 as the midpoint of the concentration-response curve, whichever way the signal moves. A low value points to greater potency.

The structures appear in SMILES notation.

With `CC1(C)CC2(CCN(c3ccccc3NS(=O)(=O)C3(c4ccccc4)CC3)CC2)CO1` [Compound A-717, N-(2-{3,3-dimethyl-2-oxa-8-azaspiro[4.5]decan-8-yl}phenyl)-1-phenylcyclopropane-1-sulfonamide], the concentration at half-maximal activity (AC50) (Homo sapiens, HeLa, 2 h) was in the range of 2.01 to 8 µM.
Turning to `CC1Cc2cc(S(=O)(=O)Nc3ccccc3N3CCN(C(=O)C(C)(C)C)CC3)ccc2O1` (centres unmarked) [Compound A-530, N-{2-[4-(2,2-dimethylpropanoyl)piperazin-1-yl]phenyl}-2-methyl-2,3-dihydro-1-benzofuran-5-sulfonamide], the AC50 (Homo sapiens, HeLa, 2 h) fell in the range of 2.01 to 8 µM.
`COc1ccc(S(=O)(=O)Nc2nccnc2N2CCN(c3ncc(Cl)cc3F)CC2)cc1` [Compound A-130, N-{3-[4-(5-chloro-3-fluoropyridin-2-yl)piperazin-1-yl]pyrazin-2-yl}-4-methoxybenzene-1-sulfonamide]: the AC50 (Homo sapiens, HeLa, 2 h) is not below 10 µM.
Same read-out and setting: with `CN(C)S(=O)(=O)c1ccc(S(=O)(=O)Nc2ccccc2N2CCC(c3ccc(Cl)cc3)CC2)cc1` [Compound A-47, N4-{2-[4-(4-chlorophenyl)piperidin-1-yl]phenyl}-N1,N1-dimethylbenzene-1,4-disulfonamide] the figure was not above 2 µM; with `CN(C(=O)C1CCN(c2ccccc2NS(=O)(=O)c2ccc(S(=O)(=O)N(C)C)cc2)CC1)c1ccccc1` [Compound A-339, 1-{2-[4-(dimethylsulfamoyl)benzenesulfonamido]phenyl}-N-methyl-N-phenylpiperidine-4-carboxamide], 2.01 to 8 µM; with `CC(c1cccc(F)c1N1CCCCC1)[S+]([O-])c1ccc(S(=O)(=O)C(F)F)cc1` (centres unmarked) [Compound A-972, 1-{2-[1-(4-difluoromethanesulfonylbenzenesulfinyl)ethyl]-6-fluorophenyl}piperidine], 2.01 to 8 µM.
With `CC(c1cccc(F)c1N1CCC(COC(C)(C)C)CC1)S(=O)(=O)c1ccc(S(=N)(=O)N(C)C)cc1` (single isomer, unassigned) [Compound A-946, 4-((1-(2-(4-(tert-butoxymethyl)piperidin-1-yl)-3-fluorophenyl)ethyl)sulfonyl)-N,N-dimethylbenzenesulfonimidamide], the AC50 was not above 2 µM.
`CC(O)C1(C)CCN(c2ccccc2NS(=O)(=O)c2ccc(S(=O)(=O)N(C)C)cc2)CC1` (centres unmarked) [Compound A-557, N1-(2-(4-(1-hydroxyethyl)-4-methylpiperidin-1-yl)phenyl)-N4,N4-dimethylbenzene-1,4-disulfonamide] displayed an AC50 (Homo sapiens, HeLa, 2 h) of 2.01 to 8 µM.
`CN(C)S(=N)(=O)c1ccc(S(=O)(=O)Nc2ccccc2N2CCC(c3ccc(Cl)cc3F)CC2)cc1` (centres unmarked) [Compound A-112, 4-({2-[4-(4-chloro-2-fluorophenyl)piperidin-1-yl]phenyl}sulfamoyl)-N,N-dimethylbenzene-1-sulfonoimidamide] returned a concentration at half-maximal activity (AC50) (Homo sapiens, HeLa, 2 h) not above 2 µM.
As to `CN(C)S(=O)(=O)c1ccc(S(=O)(=O)Nc2cccc(F)c2N2CCC(CN3CC4CC(C3)O4)CC2)cc1` [Compound A-791, N4-{3-fluoro-2-[4-({6-oxa-3-azabicyclo[3.1.1]heptan-3-yl}methyl)piperidin-1-yl]phenyl}-N1,N1-dimethylbenzene-1,4-disulfonamide], for the setting “Homo sapiens, HeLa, 2 h”, the AC50 was not below 10 µM.
On to `COCC1(C)CCN(c2ccccc2NS(=O)(=O)c2ccc3c(c2)OC2(CCC2)O3)CC1` [Compound A-685, N-{2-[4-(methoxymethyl)-4-methylpiperidin-1-yl]phenyl}spiro[1,3-benzodioxole-2,1′-cyclobutane]-6-sulfonamide], for which, for the setting “Homo sapiens, HeLa, 2 h”, the AC50 is not above 2 µM.
Molecule `COCC1(C)CCN(c2ccccc2NS(=O)(=O)c2ccc(C(C)C)cc2)CC1` [Compound A-706, N-{2-[4-(methoxymethyl)-4-methylpiperidin-1-yl]phenyl}-4-(propan-2-yl)benzene-1-sulfonamide] showed a concentration at half-maximal activity (AC50) (Homo sapiens, HeLa, 2 h) not above 2 µM.
As for `COCC1(C)CCN(c2ccccc2NS(=O)(=O)c2ccc(Cl)cc2)CC1` [Compound A-577, 4-chloro-N-{2-[4-(methoxymethyl)-4-methylpiperidin-1-yl]phenyl}benzene-1-sulfonamide], the concentration at half-maximal activity (AC50) (Homo sapiens, HeLa, 2 h) was in the range of 2.01 to 8 µM.
The molecule `CN1CC2(CCN(c3c(NS(=O)(=O)c4ccc(S(=O)(=O)N(C)C)cc4)ccc4c3cnn4C)CC2)c2ccc(F)cc21` [Compound A-247, N4-(4-{6-fluoro-1-methyl-1,2-dihydrospiro[indole-3,4′-piperidin]-1′-yl}-1-methyl-1H-indazol-5-yl)-N1,N1-dimethylbenzene-1,4-disulfonamide] showed a concentration at half-maximal activity (AC50) (Homo sapiens, HeLa, 2 h) not above 2 µM.
On the same count and under the same terms, with `C[C@@H]1CN(C2CCN(c3c(F)cccc3NS(=O)(=O)c3ccc(S(=O)(=O)N(C)C)cc3)CC2)C[C@H](C)O1` [Compound A-868, N4-(2-{4-[(2R,6S)-2,6-dimethylmorpholin-4-yl]piperidin-1-yl}-3-fluorophenyl)-N1,N1-dimethylbenzene-1,4-disulfonamide] the figure was not above 2 µM.
Still for that read-out and setting: then `O=S(=O)(Nc1cc(Cl)ccc1N1CCOC2(CCOCC2)C1)c1ccc2c(c1)CCC2` [Compound A-343, N-(5-chloro-2-{1,9-dioxa-4-azaspiro[5.5]undecan-4-yl}phenyl)-2,3-dihydro-1H-indene-5-sulfonamide], with 2.01 to 8 µM.
`CC(c1cccc(F)c1N1CCC(CN2CCC(F)(F)C2)CC1)S(=O)(=O)c1ccc(S(=O)(=O)N(C)C)cc1` (centres unmarked) [Compound A-806, 4-((1-(2-(4-((3,3-difluoropyrrolidin-1-yl)methyl)piperidin-1-yl)-3-fluorophenyl)ethyl)sulfonyl)-N,N-dimethylbenzenesulfonamide] returned a half-maximal activity concentration (AC50) not above 2 µM.
As for `CN(C)S(=O)(=O)c1ccc(S(=O)(=O)Nc2ccccc2N2CCC(c3ccccc3-c3nnn[nH]3)CC2)cc1` [Compound A-280, N1,N1-dimethyl-N4-(2-{4-[2-(1H-1,2,3,4-tetrazol-5-yl)phenyl]piperidin-1-yl}phenyl)benzene-1,4-disulfonamide], the AC50 (Homo sapiens, HeLa, 2 h) was not below 10 µM.
For the molecule `CN1CC2(CCN(c3ccccc3NS(=O)(=O)c3ccc(S(=O)(=O)N(C)C)cc3)CC2)c2ccncc21` [Compound A-412, N1,N1-dimethyl-N4-(2-{1′-methyl-1′,2′-dihydrospiro[piperidine-4,3′-pyrrolo[2,3-c]pyridin]-1-yl}phenyl)benzene-1,4-disulfonamide], where the note is “Homo sapiens, HeLa, 2 h”, the AC50 is not above 2 µM.
`CN(C)S(=O)(=O)c1ccc(S(=O)(=O)Nc2ccccc2N2CCC(C)(c3ccc(Cl)cc3)CC2)cc1` [Compound A-184, N4-{2-[4-(4-chlorophenyl)-4-methylpiperidin-1-yl]phenyl}-N1,N1-dimethylbenzene-1,4-disulfonamide] registered an AC50 (Homo sapiens, HeLa, 2 h) not above 2 µM.
For the setting “Homo sapiens, HeLa, 2 h”, `CN(C)S(=O)(=O)c1ccc(S(=O)(=O)Nc2ccccc2[C@H]2CC[C@@H](c3ccc(Cl)cc3F)CC2)cc1` [Compound A-69, N1-(2-(4-(4-chloro-2-fluorophenyl)cyclohexyl)phenyl)-N4,N4-dimethylbenzene-1,4-disulfonamide] showed a half-maximal activity concentration (AC50) of 2.01 to 8 µM.
The molecule `CN(C)S(=O)(=O)c1ccc(S(=O)(=O)Nc2ccccc2N2CCC(C(=O)Nc3ccccc3)CC2)cc1` [Compound A-338, 1-{2-[4-(dimethylsulfamoyl)benzenesulfonamido]phenyl}-N-phenylpiperidine-4-carboxamide] displayed a concentration at half-maximal activity (AC50) (Homo sapiens, HeLa, 2 h) of 2.01 to 8 µM.
Where the note is “Homo sapiens, HeLa, 2 h”, `CN(C)S(=O)(=O)c1ccc(S(=O)(=O)Nc2ccccc2N2[C@@H]3CC[C@H]2CN(c2ccc(Cl)cc2F)C3)cc1` [Compound A-25, N4-{2-[(1R,5S)-3-(4-chloro-2-fluorophenyl)-3,8-diazabicyclo[3.2.1]octan-8-yl]phenyl}-N1,N1-dimethylbenzene-1,4-disulfonamide] had a half-maximal activity concentration (AC50) not above 2 µM.
